Results from US20110150767A1, “ALPHA-SUBSTITUTED AND ALPHA-UNSUBSTITUTED AROMATIC AMINO ACID DERIVATIVES AND COMPOSITIONS THEREOF FOR USE TO TREAT, DIAGNOSE, OR MONITOR A MEDICAL CONDITION” (priority 2009, published 2011).

Tests used:
[1] = target: T1, human L-type amino acid transporter 1 (LAT1; S2-hLAT1 cells) (Homo sapiens, UniProt Q01650); test: Inhibition of L-[14C]leucine uptake in S2-LAT1 cells; assay type: cell-based; details: inhibition of 1.0 μM L-[14C]leucine uptake, 1.0 min, 37° C., NI = no inhibition at 100 μM
T1 construct: expressed in transfected cells; host or cells: S2 cells (S2-hLAT1 / S2-LAT1); mammalian cell line described in Morimoto et al., J Pharmacol Sci 2008, 108, 505-516
Protocol: (§1) The establishment and characterization of mammalian cell lines expressing human L-type amino acid transporterss (i.e. S2-hLAT1 and S2-hLAT2) has been previously described (Morimoto et al., Journal of Pharmacological Sciences, 2008, 108, 505-516).
(§2) General test procedures are as follows: All test compounds were dissolved in dimethyl sulfoxide (DMSO) to prepare stock solutions at the concentrations of 0.05, 0.5, 5.0 and 50 mM; next, these stock solutions were used and diluted with uptake solution to make final test concentrations of 0.10, 1.00, 10.0 and 100 μM, respectively. Therefore, all compounds used for uptake experiment were in uptake solution containing 0.2% DMSO; experiments are performed in triplicate for each concentration. For control uptake, only DMSO was added into the uptake solution to a final concentration of 0.2%.
(§3) S2-LAT1 and S2-LAT2 cells were seeded (1.3×10^5 cells/well) into 24-well plates and cultured at 33° C. (5% CO2) for 2-3 days until confluent (90%-100% confluence). Uptake experiments were performed at 37° C. The culture medium was removed and washed 3 times with uptake solution (37° C.; Hank's Na^+ free buffer consisting of 125 mM choline chloride, 4.8 mM KCl, 1.3 mM CaCl2, 1.2 mM MgCl2, 25.0 mM HEPES, and 5.0 mM Tris, pH 7.4, supplemented with D-glucose (5.6 mM). The cells were equilibrated in uptake solution (300 μL; 37° C.) for 12 min. The equilibrated solution was removed and uptake solution containing radio-labeled compound (1.0 μM L-[^14C] Leucine) with or without test compound (300 μL) was added to the cells (1.0 min). The test solution was removed and the cells washed 3 times with ice-cold uptake solution. The cells are then solubilized with 0.1N NaOH (0.5 mL) and transferred to scintillation vials. Liquid scintillation fluid (3.0 mL; aquasol-2) was added, mixed and substrate accumulation was measured by counting radioactivity via liquid scintillation counting (LSC; LSC6100, Aloka, Tokyo). The uptake value and % of inhibition were calculated to afford IC50 values.

[2] = target: T2, human L-type amino acid transporter 2 (LAT2; S2-hLAT2 cells) (Homo sapiens, UniProt Q9UHI5); test: Inhibition of L-[14C]leucine uptake in S2-LAT2 cells; assay type: cell-based; details: inhibition of 1.0 μM L-[14C]leucine uptake, 1.0 min, 37° C., NI = no inhibition at 100 μM
T2 construct: expressed in transfected cells; host or cells: S2 cells (S2-hLAT2 / S2-LAT2); mammalian cell line described in Morimoto et al., J Pharmacol Sci 2008, 108, 505-516
T2 sequence (Q9UHI5 1-535): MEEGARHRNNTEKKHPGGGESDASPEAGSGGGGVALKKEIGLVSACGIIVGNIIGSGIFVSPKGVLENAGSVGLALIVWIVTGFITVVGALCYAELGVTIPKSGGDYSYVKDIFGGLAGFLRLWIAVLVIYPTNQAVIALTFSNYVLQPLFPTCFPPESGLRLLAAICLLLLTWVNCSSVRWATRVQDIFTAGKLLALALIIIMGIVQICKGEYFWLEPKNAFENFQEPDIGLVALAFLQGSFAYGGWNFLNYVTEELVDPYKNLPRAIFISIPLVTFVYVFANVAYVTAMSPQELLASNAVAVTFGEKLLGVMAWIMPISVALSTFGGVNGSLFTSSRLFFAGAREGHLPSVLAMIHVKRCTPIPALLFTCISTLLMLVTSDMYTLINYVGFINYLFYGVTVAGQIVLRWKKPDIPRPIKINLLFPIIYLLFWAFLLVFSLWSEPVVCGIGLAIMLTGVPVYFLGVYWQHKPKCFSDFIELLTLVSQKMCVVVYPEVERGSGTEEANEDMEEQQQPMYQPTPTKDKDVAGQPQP
T2 sequence (P08195 1-529 partner): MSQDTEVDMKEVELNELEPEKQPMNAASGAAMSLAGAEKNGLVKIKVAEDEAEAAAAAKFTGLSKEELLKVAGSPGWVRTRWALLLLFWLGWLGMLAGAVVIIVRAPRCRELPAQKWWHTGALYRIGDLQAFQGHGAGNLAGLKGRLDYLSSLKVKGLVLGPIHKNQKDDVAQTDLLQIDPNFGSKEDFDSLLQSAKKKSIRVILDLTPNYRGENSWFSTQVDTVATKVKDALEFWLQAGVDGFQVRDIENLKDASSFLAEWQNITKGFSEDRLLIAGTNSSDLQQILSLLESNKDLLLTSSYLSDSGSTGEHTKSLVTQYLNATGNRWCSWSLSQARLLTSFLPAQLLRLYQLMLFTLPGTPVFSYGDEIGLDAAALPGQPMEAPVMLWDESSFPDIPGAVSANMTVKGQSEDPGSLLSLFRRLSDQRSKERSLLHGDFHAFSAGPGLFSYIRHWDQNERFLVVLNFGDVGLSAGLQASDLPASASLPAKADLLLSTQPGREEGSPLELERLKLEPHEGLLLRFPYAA
Protocol: as §1, §2, §3

T1 sequence (Q01650 whole entry, one chain of several): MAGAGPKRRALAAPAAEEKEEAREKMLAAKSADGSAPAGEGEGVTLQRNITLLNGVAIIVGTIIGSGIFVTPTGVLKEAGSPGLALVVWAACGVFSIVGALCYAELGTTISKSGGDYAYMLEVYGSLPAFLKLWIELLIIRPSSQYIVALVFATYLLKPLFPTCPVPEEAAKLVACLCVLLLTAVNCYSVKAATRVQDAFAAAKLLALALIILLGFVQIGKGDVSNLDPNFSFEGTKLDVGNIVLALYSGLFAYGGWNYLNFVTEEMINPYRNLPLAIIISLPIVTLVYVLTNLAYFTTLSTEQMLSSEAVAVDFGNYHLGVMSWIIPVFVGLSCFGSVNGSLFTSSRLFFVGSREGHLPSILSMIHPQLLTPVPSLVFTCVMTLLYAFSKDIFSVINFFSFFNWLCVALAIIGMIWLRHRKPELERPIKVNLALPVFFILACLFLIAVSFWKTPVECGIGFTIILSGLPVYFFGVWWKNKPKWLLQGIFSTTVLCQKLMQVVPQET

SMILES	IC50 [1] [µM]	IC50 [2] [µM]
CC(N)(Cc1cc(Cl)c(OCc2ccc3c(c2)OCO3)c(Cl)c1)C(=O)O (racemic) [compound 144]	> 100	> 100
CC(N)(Cc1cc(Cl)c(OCc2ccc(C(F)(F)F)cc2)c(Cl)c1)C(=O)O (racemic) [compound 145]		> 100
COc1ccc(COc2c(Cl)cc(CC(C)(N)C(=O)O)cc2Cl)cc1 (racemic) [compound 146]	6.7	16.4
COc1cccc(COc2c(Cl)cc(CC(C)(N)C(=O)O)cc2Cl)c1 (racemic) [compound 147]	> 100	> 100
COc1ccccc1COc1c(Cl)cc(CC(C)(N)C(=O)O)cc1Cl (racemic) [compound 148]	> 100	> 100
COc1cccc(COc2c(Cl)cc(CC(C)(N)C(=O)O)cc2Cl)c1OC (racemic) [compound 149]	> 100	> 100
COc1ccc(COc2c(Cl)cc(CC(C)(N)C(=O)O)cc2Cl)cc1OC (racemic) [compound 150]	> 100	> 100
COc1cc(COc2c(Cl)cc(CC(C)(N)C(=O)O)cc2Cl)cc(OC)c1OC (racemic) [compound 151]	> 100	> 100
CC(N)(Cc1cc(Cl)c(OCc2ccncc2)c(Cl)c1)C(=O)O (racemic) [compound 152]	> 100	> 100
N[C@@H](Cc1cc(I)c(OCCc2ccc(OC(F)(F)F)cc2)c(I)c1)C(=O)O [compound 33]	> 100	> 100
N[C@@H](Cc1cc(I)c(OCC(=O)c2ccccc2)c(I)c1)C(=O)O [compound 34]	11.9	47.9
COC(COc1c(I)cc(C[C@H](N)C(=O)O)cc1I)c1ccccc1 (stereo partly shown) [compound 35]	8.8	> 100
N[C@@H](Cc1cc(I)c(OCCc2ccc([N+](=O)[O-])cc2)c(I)c1)C(=O)O [compound 36]	28.2	> 100
N[C@@H](Cc1cc(I)c(OCc2ccc([N+](=O)[O-])cc2)c(I)c1)C(=O)O [compound 37]	11.5	8.2
COc1ccc(COc2c(I)cc(C[C@H](N)C(=O)O)cc2I)c(OC)c1 [compound 41]	5	> 100
COc1cc(Cl)ccc1COc1c(I)cc(C[C@H](N)C(=O)O)cc1I [compound 42]	17.7	> 100
COc1ccc(COc2c(I)cc(C[C@H](N)C(=O)O)cc2I)c(OC)c1OC [compound 43]	23.6	> 100
COc1ccc(COc2c(I)cc(C[C@H](N)C(=O)O)cc2I)c(C)c1C [compound 44]	7.7	> 100
COc1cc(COc2c(I)cc(C[C@H](N)C(=O)O)cc2I)cc(OC)c1OC [compound 45]	15	> 100
CCOc1ccc(COc2c(I)cc(C[C@H](N)C(=O)O)cc2I)c(OCC)c1 [compound 48]	17.2	> 100
CCOc1ccc(COc2c(I)cc(C[C@H](N)C(=O)O)cc2I)cc1OCC [compound 49]	5.5	> 100
N[C@@H](Cc1cc(I)c(OCc2ccc3c(c2)OCO3)c(I)c1)C(=O)O [compound 50]	24.1	> 100
N[C@@H](Cc1cc(I)c(OCc2ccc(Cl)cc2)c(I)c1)C(=O)O [compound 51]	10.4	29.5

SMILES	IC50 [1] [µM]	IC50 [2] [µM]
COc1ccc(CCOc2c(Br)cc(C[C@H](N)C(=O)O)cc2Br)cc1 [compound 52]	6.8	> 100
COc1cccc(CCOc2c(Br)cc(C[C@H](N)C(=O)O)cc2Br)c1 [compound 53]	6.3	> 100
COc1ccccc1CCOc1c(Br)cc(C[C@H](N)C(=O)O)cc1Br [compound 54]	5.4	> 100
COc1ccccc1COc1c(Br)cc(C[C@H](N)C(=O)O)cc1Br [compound 55]	10.2	> 100
COc1cccc(COc2c(Br)cc(C[C@H](N)C(=O)O)cc2Br)c1 [compound 56]	67.1	> 100
COc1ccc(COc2c(Br)cc(C[C@H](N)C(=O)O)cc2Br)cc1 [compound 57]	16.4	86.5
N[C@@H](Cc1cc(Br)c(OCCc2ccc(C(F)(F)F)cc2)c(Br)c1)C(=O)O [compound 58]	43.2	> 100
N[C@@H](Cc1cc(Br)c(OCCc2cccc(C(F)(F)F)c2)c(Br)c1)C(=O)O [compound 59]	31.8	> 100
N[C@@H](Cc1cc(Br)c(OCCc2ccccc2C(F)(F)F)c(Br)c1)C(=O)O [compound 60]	> 100	> 100
N[C@@H](Cc1cc(Br)c(OCc2ccccc2C(F)(F)F)c(Br)c1)C(=O)O [compound 61]	> 100	> 100
N[C@@H](Cc1cc(Cl)c(OCCc2ccccc2)c(Cl)c1)C(=O)O [compound 122]	50.7	> 100
COc1ccc(COc2c(Cl)cc(C[C@H](N)C(=O)O)cc2Cl)cc1OC [compound 129]	17.8	> 100
N[C@@H](Cc1cc(Cl)c(OCc2ccc3c(c2)OCO3)c(Cl)c1)C(=O)O [compound 130]	4.2	27.3
COc1ccc(COc2c(Cl)cc(C[C@H](N)C(=O)O)cc2Cl)cc1[N+](=O)[O-] [compound 131]	8.4	126
COc1cccc(COc2c(Cl)cc(C[C@H](N)C(=O)O)cc2Cl)c1OC [compound 132]	28.2	> 100
COc1ccc(COc2c(Cl)cc(C[C@H](N)C(=O)O)cc2Cl)c(OC)c1 [compound 133]	0.8	5.5
COc1cc(Cl)ccc1COc1c(Cl)cc(C[C@H](N)C(=O)O)cc1Cl [compound 134]	4.4	> 100
COc1ccc(COc2c(Cl)cc(C[C@H](N)C(=O)O)cc2Cl)c(OC)n1 [compound 135]	2.4	32.5
COc1ccc(COc2c(Cl)cc(C[C@H](N)C(=O)O)cc2Cl)c(OC)c1OC [compound 136]	8.1	> 100
COc1ccc(COc2c(Cl)cc(C[C@H](N)C(=O)O)cc2Cl)c(C)c1C [compound 137]	3.5	> 100
COc1cc(OC)c(OC)cc1COc1c(Cl)cc(C[C@H](N)C(=O)O)cc1Cl [compound 138]	29.2	> 100
CCOc1cc(COc2c(Cl)cc(C[C@H](N)C(=O)O)cc2Cl)cc(OCC)c1OCC [compound 139]	1.2	> 100
CCOc1ccc(COc2c(Cl)cc(C[C@H](N)C(=O)O)cc2Cl)c(OCC)c1 [compound 140]	2.2	> 100
